This passage reports relative viability results from the supplement of paper PMC10307832.

The subject of the first experiment is NCI-H1355. The experiment in a line: relative viability (nuclei count vs DMSO), 5 days (fraction); higher = more cells survive. Conditions: first compound 0.6325 µM. In outline:
(§1)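 Relative viability equals treated-well nuclei counts divided by vehicle-well nuclei counts. Counts came from 4× images of lung cancer cell lines grown in 1536-well plates for 5 days after pin-tool dosing on the day after seeding. Dosing used one drug alone or a fixed anchor-drug dose plus five library-drug doses (not always all listed) in √10 steps, and values are medians of duplicate plates.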
`COCC1(CO)C(=O)C2CCN1CC2` (configuration not stated) [PRIMA-1MET] + O=C(c1cc(Cc2n[nH]c(=O)c3ccccc23)ccc1F)N1CCN(C(=O)C2CC2)CC1 [Olaparib] (partner 8 µM): the relative viability was 0.745.

The same experiment, now with this note: first compound 2 µM.
On to `COCC1(CO)C(=O)C2CCN1CC2` (configuration not stated) [PRIMA-1MET] + N=C(N)NC(=N)NCCc1ccccc1 [Phenformin] (partner 250 µM), for which the relative viability stood at 0.384.
Still for that read-out and setting: the value for `COCC1(CO)C(=O)C2CCN1CC2` (configuration not stated) [PRIMA-1MET] + CC(=O)c1c(C)c2cnc(Nc3ccc(N4CCNCC4)cn3)nc2n(C2CCCC2)c1=O [Palbociclib] (partner 0.5 µM) was 0.328; that for `COCC1(CO)C(=O)C2CCN1CC2` (configuration not stated) [PRIMA-1MET] + Cc1nc(Nc2ncc(C(=O)Nc3c(C)cccc3Cl)s2)cc(N2CCN(CCO)CC2)n1 [Dasatinib] (partner 0.075 µM) was 0.785; that for `COCC1(CO)C(=O)C2CCN1CC2` (configuration not stated) [PRIMA-1MET] + O=C(c1cc(Cc2n[nH]c(=O)c3ccccc23)ccc1F)N1CCN(C(=O)C2CC2)CC1 [Olaparib] (partner 8 µM) was 0.713.

The same experiment, now with this note: first compound 6.325 µM.
Turning to `COCC1(CO)C(=O)C2CCN1CC2` (configuration not stated) [PRIMA-1MET] + N=C(N)NC(=N)NCCc1ccccc1 [Phenformin] (partner 250 µM), the relative viability came out at 0.46.
Consider `COCC1(CO)C(=O)C2CCN1CC2` (configuration not stated) [PRIMA-1MET] + CC(=O)c1c(C)c2cnc(Nc3ccc(N4CCNCC4)cn3)nc2n(C2CCCC2)c1=O [Palbociclib] (partner 0.5 µM), for which the relative viability came to 0.436.
Consider `COCC1(CO)C(=O)C2CCN1CC2` (configuration not stated) [PRIMA-1MET] + Cc1nc(Nc2ncc(C(=O)Nc3c(C)cccc3Cl)s2)cc(N2CCN(CCO)CC2)n1 [Dasatinib] (partner 0.075 µM), for which the relative viability stood at 0.766.
The same measure, in the same setting: the value for `COCC1(CO)C(=O)C2CCN1CC2` (configuration not stated) [PRIMA-1MET] + O=C(c1cc(Cc2n[nH]c(=O)c3ccccc23)ccc1F)N1CCN(C(=O)C2CC2)CC1 [Olaparib] (partner 8 µM) was 0.818.

The experiment is the same for the next values; noted with them: first compound 20 µM.
As for `COCC1(CO)C(=O)C2CCN1CC2` (configuration not stated) [PRIMA-1MET] + N=C(N)NC(=N)NCCc1ccccc1 [Phenformin] (partner 250 µM), the relative viability was 0.421.
In the case of `COCC1(CO)C(=O)C2CCN1CC2` (configuration not stated) [PRIMA-1MET] + CC(=O)c1c(C)c2cnc(Nc3ccc(N4CCNCC4)cn3)nc2n(C2CCCC2)c1=O [Palbociclib] (partner 0.5 µM), the relative viability turned out to be 0.414.
The molecule `COCC1(CO)C(=O)C2CCN1CC2` (configuration not stated) [PRIMA-1MET] + Cc1nc(Nc2ncc(C(=O)Nc3c(C)cccc3Cl)s2)cc(N2CCN(CCO)CC2)n1 [Dasatinib] (partner 0.075 µM) showed a relative viability of 0.657.
Take `COCC1(CO)C(=O)C2CCN1CC2` (configuration not stated) [PRIMA-1MET] + O=C(c1cc(Cc2n[nH]c(=O)c3ccccc23)ccc1F)N1CCN(C(=O)C2CC2)CC1 [Olaparib] (partner 8 µM): the relative viability was 0.707.

In another experiment the test system is NCI-H1437. The description is as above. Conditions: first compound 0.2 µM. In outline:
as §1
Consider `COCC1(CO)C(=O)C2CCN1CC2` (configuration not stated) [PRIMA-1MET] + N=C(N)NC(=N)NCCc1ccccc1 [Phenformin] (partner 250 µM), for which the relative viability was determined as 0.322.
On the same count and under the same terms, the value for `COCC1(CO)C(=O)C2CCN1CC2` (configuration not stated) [PRIMA-1MET] + CC(=O)c1c(C)c2cnc(Nc3ccc(N4CCNCC4)cn3)nc2n(C2CCCC2)c1=O [Palbociclib] (partner 0.5 µM) was 0.322; that for `COCC1(CO)C(=O)C2CCN1CC2` (configuration not stated) [PRIMA-1MET] + Cc1nc(Nc2ncc(C(=O)Nc3c(C)cccc3Cl)s2)cc(N2CCN(CCO)CC2)n1 [Dasatinib] (partner 0.075 µM) was 0.435; that for `COCC1(CO)C(=O)C2CCN1CC2` (configuration not stated) [PRIMA-1MET] + O=C(c1cc(Cc2n[nH]c(=O)c3ccccc23)ccc1F)N1CCN(C(=O)C2CC2)CC1 [Olaparib] (partner 8 µM) was 0.641.

Staying with this experiment, now noted: first compound 0.6325 µM.
With `COCC1(CO)C(=O)C2CCN1CC2` (configuration not stated) [PRIMA-1MET] + N=C(N)NC(=N)NCCc1ccccc1 [Phenformin] (partner 250 µM), the relative viability is 0.331.
As for `COCC1(CO)C(=O)C2CCN1CC2` (configuration not stated) [PRIMA-1MET] + CC(=O)c1c(C)c2cnc(Nc3ccc(N4CCNCC4)cn3)nc2n(C2CCCC2)c1=O [Palbociclib] (partner 0.5 µM), the relative viability is 0.313.
Still for that read-out and setting: the value for `COCC1(CO)C(=O)C2CCN1CC2` (configuration not stated) [PRIMA-1MET] + Cc1nc(Nc2ncc(C(=O)Nc3c(C)cccc3Cl)s2)cc(N2CCN(CCO)CC2)n1 [Dasatinib] (partner 0.075 µM) was 0.184.
The same measure, in the same setting: the value for `COCC1(CO)C(=O)C2CCN1CC2` (configuration not stated) [PRIMA-1MET] + O=C(c1cc(Cc2n[nH]c(=O)c3ccccc23)ccc1F)N1CCN(C(=O)C2CC2)CC1 [Olaparib] (partner 8 µM) was 0.556.

The experiment is the same for the next values; noted with them: first compound 2 µM.
`COCC1(CO)C(=O)C2CCN1CC2` (configuration not stated) [PRIMA-1MET] + N=C(N)NC(=N)NCCc1ccccc1 [Phenformin] (partner 250 µM) came in with a relative viability of 0.259.
Consider `COCC1(CO)C(=O)C2CCN1CC2` (configuration not stated) [PRIMA-1MET] + CC(=O)c1c(C)c2cnc(Nc3ccc(N4CCNCC4)cn3)nc2n(C2CCCC2)c1=O [Palbociclib] (partner 0.5 µM), for which the relative viability came out at 0.306.
`COCC1(CO)C(=O)C2CCN1CC2` (configuration not stated) [PRIMA-1MET] + Cc1nc(Nc2ncc(C(=O)Nc3c(C)cccc3Cl)s2)cc(N2CCN(CCO)CC2)n1 [Dasatinib] (partner 0.075 µM) yielded a relative viability of 0.43.
Still for that read-out and setting: next, `COCC1(CO)C(=O)C2CCN1CC2` (configuration not stated) [PRIMA-1MET] + O=C(c1cc(Cc2n[nH]c(=O)c3ccccc23)ccc1F)N1CCN(C(=O)C2CC2)CC1 [Olaparib] (partner 8 µM): 0.627.

Staying with this experiment, now noted: first compound 6.325 µM.
As to `COCC1(CO)C(=O)C2CCN1CC2` (configuration not stated) [PRIMA-1MET] + N=C(N)NC(=N)NCCc1ccccc1 [Phenformin] (partner 250 µM), the relative viability is 0.298.
Consider `COCC1(CO)C(=O)C2CCN1CC2` (configuration not stated) [PRIMA-1MET] + CC(=O)c1c(C)c2cnc(Nc3ccc(N4CCNCC4)cn3)nc2n(C2CCCC2)c1=O [Palbociclib] (partner 0.5 µM), for which the relative viability was found to be 0.324.
